Measured values: PMC9139161, “Phenolics from Chrozophora oblongifolia Aerial Parts as Inhibitors of α-Glucosidases and Advanced Glycation End Products: In-Vitro Assessment, Molecular Docking and Dynamics Studies” (Biology, 2022)
Several values for one entry are separate records, joined by “and”; a condition that tells them apart may be missing. Equal values may be shown once. Read-outs that look alike come from different tables or passages of the source.

How the values were obtained:
[1] = Oxygen radical absorbance capacity (ORAC) assay; conditions: Trolox equivalents
Description: Isolated compounds were dissolved in DMSO to prepare a concentration of 0.25 mg/mL, meanwhile, the positive control (Trolox) was used to prepare a stock solution of 1 mM in MeOH; from which nine concentrations were prepared including 400, 300, 200, 150, 100, 75, 50, 25, and 12.5 µM to construct the dose-response curve. The assay was carried out as previously reported, with minor modifications. Briefly, 12.5 µL of the prepared sample(s) were incubated with 75 µL fluoresceine (10 nM) for 30 min at 37 °C. Measuring fluorescence was performed (520 EM, 485 EX, nm) for 3 cycles (90 s cycle time) for background measurement (Supplementary Figure S5). Subsequently, to each well, freshly-made AAPH (2,2′-azobis(2-amidinopropane) dihydrochloride) (12.5 µL, 240 mM) was immediately added. Measuring fluorescence (520 EM, 485 EX, nm) was maintained (90 s × 85 cycles) for 2.5 h (Supplementary Figure S5). The antioxidant potential (µM trolox equivalents) was estimated by substituting in the linear-regression equation.

[2] = biological target: T1, α-Glucosidase from Saccharomyces cerevisiae (Saccharomyces cerevisiae, UniProt P53341); assay: α-Glucosidase inhibition (pNPG colorimetric); type: biochemical
T1 construct: purchased Sigma-Aldrich G003
Description: α-Glucosidase from Saccharomyces cerevisiae (Sigma-Aldrich, St. Louis, MO, USA cat#G003) was used in this assay. Solutions of the different compounds were prepared in 1000 µM final concentrations in dimethyl sulfoxide (DMSO). Compounds that exceeded 50% inhibition at this concentration were serially diluted to determine their half-maximal inhibitory concentration (IC50).
Briefly, 25 μL of samples/blank were incubated for 10 min at 37 °C with 50 μL of α-glucosidase (0.6 U/mL) in phosphate buffer (0.1 M, pH 7) in 96-microwell plates. The mixture was then incubated at 37 °C for 5 min with 25 μL of 3 mM pNPG in phosphate buffer (pH 7). A microplate reader (TECAN, Männedorf, Switzerland) was used to measure p-nitrophenol release from pNPG substrate at 405 nm to determine enzyme activity. Then, % α-glucosidase inhibition was estimated.

[3] = Metal chelation assay (ferrozine); conditions: EDTA equivalents; mean ± SD
Description: Isolated compounds were dissolved in DMSO to prepare a concentration of 0.5 mg/mL, meanwhile, the positive control (EDTA) was used to prepare a stock solution of 100 µM in water; from which six concentrations were prepared including 5, 10, 20, 40, 50 and 80 µM to construct the dose-response curve. The assay was carried out as previously reported, with minor modifications. Briefly, in 96 wells plate (n = 6) 20 µL of the freshly prepared ferrous sulfate (0.3 mM) was mixed with 50 µL of the tested compound and incubated with 30 µL of ferrozine (0.8 mM) for 10 min at room temperature. Finally, reduction in color intensity was assessed at 540 nm using a microplate reader (Tecan, San Jose, CA, USA). Data are represented as means (n = 3) ± SD and the antioxidant effect of the extracts was calculated as µM EDTA equivalents by substitution in the linear regression equation (Supplementary Figure S4).

[4] = test system: advanced glycation end products (AGEs) formation, arginine-methylglyoxal model; assay: AGEs formation inhibition, arginine-methylglyoxal assay; type: biochemical; conditions: AGEs fluorescence, 72 h, 37 °C; read-out: Arginine-Methylglyoxal Model IC50 (Mean ± SE)
Description: The isolated compounds were prepared at final concentrations of 500 µM in DMSO in the BSA-fructose assay, and 1000 µM in all other AGEs assays. Compounds that exceeded 50% inhibition at this concentration were serially diluted to determine their IC50. All tests were conducted using quercetin (positive control).
The determination of the inhibitory effect of the isolated compounds on the formation of AGEs in the arginine methylglyoxal model was used as described previously with slight modification. Briefly, in black 96-microwell plates, a sample was incubated for 72 h at 37 °C in the dark with methylglyoxal (53.3 mM, in distilled water) and 106.6 mM arginine (in 200 mM phosphate buffer, pH 7.4, with 0.02% sodium azide), (1:1:1 v/v/v). On a microplate reader (Fluostar Omega/BMG Labtech/Germany), fluorescent AGEs were detected using excitation and emission wavelengths of 355 nm and 460 nm, respectively. Triplicates of all experiments were performed.

ABTS assay = conditions: ascorbic acid equivalents; mean ± SD, n = 3
Description: DMSO was used for the preparation of 0.5 mg/mL concentrations of isolated compounds, meanwhile, the positive control (ascorbic acid) was used to prepare a stock solution of 1000 µM in water; from which seven concentrations were prepared including 7.812, 15.625, 31.25, 62.5, 125, 250 and 500 µM to construct the concentration-response curve (Supplementary Data Figure S2). The activity of the tested compounds to scavenge the free radicals of ABTS (2,2′-azino-bis (3-ethylbenzothiazoline-6-sulfonic acid)) was assessed according to the methodology reported previously with slight modifications.
Five milliliters of aqueous solution (7 mM) of ABTS was mixed with 88 µL potassium persulfate (140 mM) and the mixture was kept in the dark for 16 h to produce ABTS radical cation (ABTS^•+). Then methanol was added to the reaction mixture to dilute the formed ABTS^•+ solution to an absorbance of 0.700 (1:50) at 690 nm.
Ten microliters of the tested compound were incubated with 190 μL of ABTS^•+ solution in a 96-well plate for thirty minutes in the dark and the absorbance was measured later using a microplate reader (TECAN, Männedorf, Switzerland) at 690 nm. Data are represented as means (n = 3) ± SD and the antioxidant effect of the tested compounds was calculated as µM Ascorbic acid equivalents by substitution in the linear regression equation (Supplementary Figure S2).

[5] = Saccharomyces cerevisiae enzyme, pNPG substrate, read-out: α-Glucosidase assay IC50 (Mean ± SE)

T1 sequence (P53341 whole entry): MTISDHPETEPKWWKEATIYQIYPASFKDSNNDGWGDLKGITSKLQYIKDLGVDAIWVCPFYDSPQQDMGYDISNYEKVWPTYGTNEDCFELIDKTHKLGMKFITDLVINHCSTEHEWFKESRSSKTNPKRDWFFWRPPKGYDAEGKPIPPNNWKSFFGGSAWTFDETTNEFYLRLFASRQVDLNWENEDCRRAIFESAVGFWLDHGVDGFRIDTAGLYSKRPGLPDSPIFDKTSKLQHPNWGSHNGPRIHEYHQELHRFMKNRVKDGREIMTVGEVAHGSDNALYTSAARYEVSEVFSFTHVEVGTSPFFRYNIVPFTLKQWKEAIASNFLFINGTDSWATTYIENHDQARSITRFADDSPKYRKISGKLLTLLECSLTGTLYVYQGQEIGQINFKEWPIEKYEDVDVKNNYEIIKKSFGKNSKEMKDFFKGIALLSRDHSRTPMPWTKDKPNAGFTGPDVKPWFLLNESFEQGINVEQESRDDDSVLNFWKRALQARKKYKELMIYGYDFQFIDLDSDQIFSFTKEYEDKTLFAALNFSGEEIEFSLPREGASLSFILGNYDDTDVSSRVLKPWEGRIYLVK

IC50 [2, 5] [µM] | IC50 [4] [µM] | Structure (SMILES) | ORAC assay [1] | Metal chelation [3] | ABTS (ABTS assay) [mM AAE/mg] | IC50 [2] [µM]
4.5 | 226 | O=C(OC[C@H]1O[C@H](OC(=O)c2cc(O)c(O)c(O)c2)[C@H](O)[C@@H](OC(=O)c2cc(O)c(O)c(O)c2)[C@@H]1O)c1cc(O)c(O)c(O)c1 (stereo in doubt) [Compound 5, 1,3,6-trigalloyl glucose] | 1.119±0.116 mM TE/mg and 1.11 mM TE/mg | 17.52±2.43 µM EDTA eq/mg and 17.52 µM EDTA eq/mg | 9.640±0.061 | –
545 | 1140 | O=C(O)[C@H]1O[C@@H](Oc2c(-c3ccc(O)c(O)c3)oc3cc(O)cc(O)c3c2=O)[C@H](O)[C@@H](O)[C@@H]1O [Compound 2, quercetin-3-O-β-D-glucuronic acid] | 0.739±0.098 mM TE/mg and 0.74 mM TE/mg | 8.29±0.05 µM EDTA eq/mg and 8.29 µM EDTA eq/mg | 0.646 ±0.072 | –
385 | > 1200 | O=C(O)[C@H]1O[C@@H](Oc2c(-c3ccc(O)c(O)c3)oc3cc(O)cc(O)c3c2=O)[C@H](O)[C@@H](O)[C@H]1O [Compound 3, quercetin-3-O-β-D-galacturonic acid] | 0.538±0.015 mM TE/mg and 0.54 mM TE/mg | 28.26±0.78 µM EDTA eq/mg and 28.26 µM EDTA eq/mg | 0.210 ±0.012 | –

Structure (SMILES) | IC50 [2, 5] [µM] | IC50 [4] [µM] | ORAC assay [1] | Metal chelation [3] | ABTS (ABTS assay) [mM AAE/mg] | IC50 [2] [µM]
O=c1cc(-c2ccc(O)cc2)oc2cc(O[C@@H]3O[C@H](CO)[C@@H](O)[C@H](O)[C@H]3O)cc(O)c12 [Compound 1, apeginin-7-O-β-D-glucoside] | – | 474 | 1.092±0.067 mM TE/mg and 1.09 mM TE/mg | 19.26±1.52 µM EDTA eq/mg and 19.26 µM EDTA eq/mg | 0.702±0.050 | 408
C[C@@H]1O[C@@H](OC[C@H]2O[C@@H](Oc3c(-c4ccc(O)c(O)c4)oc4cc(O)cc(O)c4c3=O)[C@H](O)[C@@H](O)[C@@H]2O)[C@H](O)[C@H](O)[C@H]1O [Compound 4, rutin] | – | 303 | 2.164±0.096 mM TE/mg and 2.16 mM TE/mg | 28.96±2.07 µM EDTA eq/mg and 28.96 µM EDTA eq/mg | 1.972±0.059 | 754
